Assay results published in ChEMBL document CHEMBL5244205, “Discovery of tricyclic dipyrrolopyridine derivatives as novel JAK inhibitors” (Bioorg Med Chem, 2017).

How the values were obtained:
[1] = molecular target: Glycogen synthase kinase-3 beta (Homo sapiens, UniProt P49841); test: Inhibition of GSK3beta (unknown origin)
[2] = molecular target: High affinity nerve growth factor receptor (Homo sapiens, UniProt P04629); test: Inhibition of TRKA (unknown origin)
[3] = pampa, pH 6.5, 2 h
Description: Permeability of the compound in pH 6.5 incubated for 2 hrs by PAMPA based HPLC analysis

[4] = molecular target: Tyrosine-protein kinase BTK (Homo sapiens, UniProt Q06187); test: Inhibition of BTK (unknown origin)
[5] = Oral availability in Sprague-Dawley rat at 1 mg/kg measured up to 24 hrs by LC-MS/MS analysis; assay type: ADME, organism-based; details: in vivo
[6] = molecular target: RAC-alpha serine/threonine-protein kinase (Homo sapiens, UniProt P31749); test: Inhibition of AKT1 (unknown origin)
Sequence of RAC-alpha serine/threonine-protein kinase (P31749 whole entry, canonical isoform): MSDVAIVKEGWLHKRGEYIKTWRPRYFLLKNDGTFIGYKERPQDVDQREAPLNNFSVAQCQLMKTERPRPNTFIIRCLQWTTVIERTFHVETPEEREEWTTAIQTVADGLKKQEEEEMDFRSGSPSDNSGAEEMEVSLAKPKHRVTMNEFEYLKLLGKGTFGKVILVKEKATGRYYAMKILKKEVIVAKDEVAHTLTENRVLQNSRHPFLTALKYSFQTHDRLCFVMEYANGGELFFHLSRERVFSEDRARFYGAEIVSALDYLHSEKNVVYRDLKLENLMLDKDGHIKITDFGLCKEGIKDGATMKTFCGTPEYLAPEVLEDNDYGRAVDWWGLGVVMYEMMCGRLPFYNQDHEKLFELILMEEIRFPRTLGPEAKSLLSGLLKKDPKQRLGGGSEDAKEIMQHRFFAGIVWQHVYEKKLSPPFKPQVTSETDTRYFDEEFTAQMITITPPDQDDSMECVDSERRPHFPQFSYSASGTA

[7] = molecular target: Casein kinase I isoform delta (Homo sapiens, UniProt P48730); test: Inhibition of CHKdelta (unknown origin)
Sequence of Casein kinase I isoform delta (P48730 whole entry, canonical isoform): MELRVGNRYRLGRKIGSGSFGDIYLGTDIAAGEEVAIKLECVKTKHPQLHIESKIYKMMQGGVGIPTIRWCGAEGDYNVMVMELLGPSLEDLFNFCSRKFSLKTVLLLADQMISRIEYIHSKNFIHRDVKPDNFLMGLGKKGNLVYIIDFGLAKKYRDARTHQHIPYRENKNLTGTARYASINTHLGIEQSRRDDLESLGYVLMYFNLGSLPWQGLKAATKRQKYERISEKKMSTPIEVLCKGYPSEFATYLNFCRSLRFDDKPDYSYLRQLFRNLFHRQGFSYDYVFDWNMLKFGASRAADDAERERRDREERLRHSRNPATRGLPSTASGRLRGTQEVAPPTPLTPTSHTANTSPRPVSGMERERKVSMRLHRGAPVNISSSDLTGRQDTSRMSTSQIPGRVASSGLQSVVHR

[8] = molecular target: Tyrosine-protein kinase JAK2 (Homo sapiens, UniProt O60674)
Sequence of Tyrosine-protein kinase JAK2 (O60674 whole entry): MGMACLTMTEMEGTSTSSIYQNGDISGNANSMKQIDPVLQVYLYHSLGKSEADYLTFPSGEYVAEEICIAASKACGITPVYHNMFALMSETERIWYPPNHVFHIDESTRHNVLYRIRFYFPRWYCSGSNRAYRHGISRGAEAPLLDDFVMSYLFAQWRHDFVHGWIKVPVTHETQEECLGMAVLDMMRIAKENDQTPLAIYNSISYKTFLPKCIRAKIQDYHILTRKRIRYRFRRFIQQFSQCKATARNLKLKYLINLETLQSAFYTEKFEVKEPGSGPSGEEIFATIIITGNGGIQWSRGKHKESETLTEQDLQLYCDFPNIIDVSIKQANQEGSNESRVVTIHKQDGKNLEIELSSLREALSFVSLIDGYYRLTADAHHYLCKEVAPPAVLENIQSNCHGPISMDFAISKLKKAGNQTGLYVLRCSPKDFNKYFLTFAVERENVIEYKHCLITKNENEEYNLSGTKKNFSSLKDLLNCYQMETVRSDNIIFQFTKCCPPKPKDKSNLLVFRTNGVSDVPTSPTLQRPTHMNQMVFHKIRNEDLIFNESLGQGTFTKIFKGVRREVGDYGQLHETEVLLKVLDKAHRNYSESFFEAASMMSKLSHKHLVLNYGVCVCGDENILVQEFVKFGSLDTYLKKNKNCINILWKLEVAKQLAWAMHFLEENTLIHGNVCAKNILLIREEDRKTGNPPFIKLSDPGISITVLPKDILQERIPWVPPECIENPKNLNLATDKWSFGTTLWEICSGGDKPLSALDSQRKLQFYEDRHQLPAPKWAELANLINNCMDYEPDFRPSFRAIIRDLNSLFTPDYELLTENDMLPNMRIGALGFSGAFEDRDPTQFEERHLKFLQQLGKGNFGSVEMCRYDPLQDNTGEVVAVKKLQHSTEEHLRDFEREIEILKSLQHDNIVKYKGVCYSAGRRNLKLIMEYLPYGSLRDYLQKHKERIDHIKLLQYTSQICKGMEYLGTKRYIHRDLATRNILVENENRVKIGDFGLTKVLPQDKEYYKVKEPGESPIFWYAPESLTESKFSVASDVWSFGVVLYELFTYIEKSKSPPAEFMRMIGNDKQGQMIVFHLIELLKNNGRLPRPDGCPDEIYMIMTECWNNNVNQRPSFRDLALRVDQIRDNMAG
Description: Inhibition of human JAK2 kinase domain using biotin-Lyn-substrate-2 as substrate incubated for 1 hr by ELISA

[9] = Volume of distribution in Sprague-Dawley rat at 1 mg/kg, iv measured up to 24 hrs by LC-MS/MS analysis; assay type: ADME, organism-based; details: in vivo
[10] = Clearance in Sprague-Dawley rat at 1 mg/kg, iv measured up to 24 hrs by LC-MS/MS analysis; assay type: ADME, organism-based; details: in vivo
[11] = molecular target: Cyclin-dependent kinase 2 (Homo sapiens, UniProt P24941); test: Inhibition of CDK2 (unknown origin)
[12] = Cmax in Sprague-Dawley rat at 1 mg/kg, po measured up to 24 hrs by LC-MS/MS analysis; assay type: ADME, organism-based; design: time < 24 hrs, dose 1 mg/kg, route po; details: in vivo
[13] = molecular target: Insulin-like growth factor 1 receptor (Homo sapiens, UniProt P08069); test: Inhibition of IGF1R (unknown origin)
Sequence of Insulin-like growth factor 1 receptor (P08069 31-736 limits assumed): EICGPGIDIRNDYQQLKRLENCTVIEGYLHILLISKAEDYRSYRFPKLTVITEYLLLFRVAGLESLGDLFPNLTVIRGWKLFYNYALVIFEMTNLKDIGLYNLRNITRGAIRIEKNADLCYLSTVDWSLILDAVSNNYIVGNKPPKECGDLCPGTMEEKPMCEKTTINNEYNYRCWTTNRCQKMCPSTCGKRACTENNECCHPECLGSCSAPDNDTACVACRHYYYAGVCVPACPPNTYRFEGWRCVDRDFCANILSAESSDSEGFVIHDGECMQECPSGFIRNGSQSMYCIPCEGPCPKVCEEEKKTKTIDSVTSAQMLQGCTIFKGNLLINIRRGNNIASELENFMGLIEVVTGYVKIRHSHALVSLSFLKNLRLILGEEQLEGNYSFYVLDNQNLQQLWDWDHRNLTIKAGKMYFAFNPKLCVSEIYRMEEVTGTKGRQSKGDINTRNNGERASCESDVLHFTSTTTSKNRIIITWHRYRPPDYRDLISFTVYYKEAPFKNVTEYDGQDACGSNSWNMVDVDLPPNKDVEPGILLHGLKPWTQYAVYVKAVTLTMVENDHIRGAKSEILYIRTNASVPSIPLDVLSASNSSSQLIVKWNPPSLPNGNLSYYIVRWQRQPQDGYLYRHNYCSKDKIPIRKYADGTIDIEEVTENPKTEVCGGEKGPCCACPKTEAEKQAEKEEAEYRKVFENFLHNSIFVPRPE
Sequence of Insulin-like growth factor 1 receptor (P08069 741-1367 limits assumed): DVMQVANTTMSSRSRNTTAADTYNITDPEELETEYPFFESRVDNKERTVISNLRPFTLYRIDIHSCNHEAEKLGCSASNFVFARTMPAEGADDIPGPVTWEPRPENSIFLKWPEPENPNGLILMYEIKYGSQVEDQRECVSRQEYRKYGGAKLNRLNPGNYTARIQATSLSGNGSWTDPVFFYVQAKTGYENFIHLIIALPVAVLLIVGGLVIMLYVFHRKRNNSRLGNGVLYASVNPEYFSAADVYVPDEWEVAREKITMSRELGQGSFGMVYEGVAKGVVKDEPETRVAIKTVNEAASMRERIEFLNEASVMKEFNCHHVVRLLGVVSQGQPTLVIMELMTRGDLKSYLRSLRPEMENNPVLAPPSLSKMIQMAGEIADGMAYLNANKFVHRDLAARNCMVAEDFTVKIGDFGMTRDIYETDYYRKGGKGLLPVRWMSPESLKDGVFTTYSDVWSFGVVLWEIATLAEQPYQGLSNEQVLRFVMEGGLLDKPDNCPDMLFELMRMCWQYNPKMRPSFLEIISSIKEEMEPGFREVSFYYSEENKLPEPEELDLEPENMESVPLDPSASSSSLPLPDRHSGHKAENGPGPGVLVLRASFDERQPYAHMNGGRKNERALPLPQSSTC

[14] = tested on: Rattus norvegicus; test: Immunosuppressive activity in Lewis rat transplanted with ACI rat cardiac tissue assessed as reduction in graft rejection by measuring mean survival days at 0.5 mg/kg, po administered for 14 consecutive days co-treated with tacrolimus (reference value: 10 days); assay type: functional; details: time 14 day
[15] = cells; details: Rattus norvegicus, Lewis, Splenocyte, 72 h
Description: Immunosuppressive activity in Lewis rat splenocytes assessed as inhibition of concanavalin A-induced IL-2 receptor expression incubated for 3 days by alamarBlue assay

Sequence of High affinity nerve growth factor receptor (P04629 whole entry): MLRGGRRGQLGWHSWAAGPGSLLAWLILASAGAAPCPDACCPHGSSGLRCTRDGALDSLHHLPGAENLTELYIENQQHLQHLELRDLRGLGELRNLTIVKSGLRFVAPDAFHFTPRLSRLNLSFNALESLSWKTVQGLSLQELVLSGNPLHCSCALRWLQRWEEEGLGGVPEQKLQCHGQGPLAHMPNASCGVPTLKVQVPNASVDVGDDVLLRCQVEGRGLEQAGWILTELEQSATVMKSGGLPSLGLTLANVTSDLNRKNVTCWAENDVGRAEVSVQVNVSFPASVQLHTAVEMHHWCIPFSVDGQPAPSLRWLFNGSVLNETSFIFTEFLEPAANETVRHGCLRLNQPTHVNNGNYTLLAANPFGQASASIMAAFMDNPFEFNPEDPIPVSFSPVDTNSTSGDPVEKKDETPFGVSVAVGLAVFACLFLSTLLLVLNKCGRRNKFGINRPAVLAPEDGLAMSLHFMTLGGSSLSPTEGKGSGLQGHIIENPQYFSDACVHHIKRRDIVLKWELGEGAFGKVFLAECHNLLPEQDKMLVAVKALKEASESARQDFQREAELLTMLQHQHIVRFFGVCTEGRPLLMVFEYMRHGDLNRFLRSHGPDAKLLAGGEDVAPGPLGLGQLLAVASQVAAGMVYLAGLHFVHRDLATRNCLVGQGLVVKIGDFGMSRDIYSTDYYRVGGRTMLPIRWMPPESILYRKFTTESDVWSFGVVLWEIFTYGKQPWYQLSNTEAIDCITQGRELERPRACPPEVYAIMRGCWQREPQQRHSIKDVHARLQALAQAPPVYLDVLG
Sequence of Glycogen synthase kinase-3 beta (P49841 whole entry): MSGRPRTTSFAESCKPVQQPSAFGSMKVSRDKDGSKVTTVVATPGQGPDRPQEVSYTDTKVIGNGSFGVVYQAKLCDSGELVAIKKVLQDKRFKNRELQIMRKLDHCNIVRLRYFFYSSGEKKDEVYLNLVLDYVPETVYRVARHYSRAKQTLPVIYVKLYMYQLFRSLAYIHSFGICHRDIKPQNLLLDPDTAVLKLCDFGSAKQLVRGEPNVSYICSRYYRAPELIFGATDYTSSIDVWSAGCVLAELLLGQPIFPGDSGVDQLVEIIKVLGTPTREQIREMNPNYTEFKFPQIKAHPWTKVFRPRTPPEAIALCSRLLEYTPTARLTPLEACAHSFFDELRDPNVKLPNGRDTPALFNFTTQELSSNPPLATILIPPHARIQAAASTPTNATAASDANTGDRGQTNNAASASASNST

C[C@@H]1CCN(C(=O)CC#N)C[C@@H]1n1ccc2cnc3[nH]ccc3c21
IC50 [1]: > 1000 nM
IC50 [2]: > 1000 nM
permeability [3]: 20 10^-6 cm/s
IC50 [4]: > 1000 nM
bioavailability [5]: 103%
IC50 [6]: > 1000 nM
IC50 [7]: > 1000 nM
IC50 [8]: 0.3 nM
Vd [9]: 1.52 L/kg
clearance [10]: 18.8 mL/min/kg
IC50 [11]: > 1000 nM
Cmax [12]: 260 ng/mL
IC50 [13]: > 1000 nM
MST [14]: 21 days
IC50 [15]: 4.3 nM
